Results as given in patent EP0009547A1, “Fluoramphenicol esters, chemotherapeutic preparations containing them and process for their preparation” (F. HOFFMANN-LA ROCHE & CO. Aktiengesellschaft, priority 1978, dated 1980).
Structures can show the parent of a compound that is named as a salt. Where two headings read alike, the source gives them in different places. Values belong to the molecule of their own block, whether it stands above or below them.

Legend:
Metabolic stability = type: in vitro ADME; conditions: stated in contrast to Chloramphenicol
[1] = Water solubility (observation on the isolated product); type: physicochemical; conditions: in Wasser, result in words
[2] = system: Pseudomonas aeruginosa BA; experiment: In vivo activity (mouse), infection with Pseudomonas aeruginosa BA; conditions: po; Maus, p.o., gegen Pseudomonas aeruginosa BA; hydrochloride form; read-out: In-vivo-Aktivität (Maus) (CD50 p.o.)
[3] = Hydrolytic cleavage of the ester at physiological pH; type: physicochemical; conditions: bei physiologischem pH
Salmonella typhimurium = experiment: In vivo activity (mouse), infection with Salmonella typhimurium; conditions: Salmonella enterica, po; Maus, p.o., gegen Salmonella typhimurium; hydrochloride form; read-out: In-vivo-Aktivität (Maus) (CD50 p.o.)
Acute toxicity (mouse) = conditions: in vivo, read-out: Akute Toxizität (Maus): LD50
Escherichia coli = experiment: In vivo activity (mouse), infection with Escherichia coli; conditions: po; Maus, p.o., gegen Escherichia coli; hydrochloride form; read-out: In-vivo-Aktivität (Maus) (CD50 p.o.)
Streptococcos pyogenes = experiment: In vivo activity (mouse), infection with Streptococcos pyogenes; conditions: po, Maus, p.o., gegen Streptococcos pyogenes, hydrochloride form, read-out: In-vivo-Aktivität (Maus) (CD50 p.o.)

- Metabolische Beständigkeit (Metabolic stability): metabolisch beständig
SMILES: O=C(N[C@H](CO)[C@H](O)c1ccc([N+](=O)[O-])cc1)C(F)F [Fluoramphenicol, D-threo-1-(p-Nitrophenyl)-2-difluor-Mez/3.5.1979 acetamino-l,3-propandiol]

- Wasserlöslichkeit [1]: sehr gut wasserlösliches
SMILES: C[C@H](N)C(=O)OC[C@@H](NC(=O)C(F)F)[C@H](O)c1ccc([N+](=O)[O-])cc1 [Fluoramphenicol-3-(L-alaninester)-hydrochlorid]

SMILES: NCC(=O)OC[C@@H](NC(=O)C(F)F)[C@H](O)c1ccc([N+](=O)[O-])cc1 [Fluoramphenicol-3-glycinester, Fluoramphenicol-3-(glycinester)-hydrochlorid]
- ED50 [2]: 47 mg/kg
- Hydrolytische Spaltung [3]: sofort hydrolytisch zu wirksamem Fluoramphenicol gespalten
- ED50 (Salmonella typhimurium): 12 mg/kg
- LD50 (Acute toxicity (mouse); po): > 5000 mg/kg
- LD50 (Acute toxicity (mouse); sc): 2000 to 4000 mg/kg
- ED50 (Escherichia coli): 23 mg/kg
- ED50 (Streptococcos pyogenes): 27 mg/kg

- Wasserlöslichkeit [1]: sehr gut wasserlösliches
SMILES: O=C(O)CCC(=O)OC[C@@H](NC(=O)C(F)F)[C@H](O)c1ccc([N+](=O)[O-])cc1 [Fluoramphenicol-3-monosuccinat-natriumsalz]

- Wasserlöslichkeit [1]: in Wasser praktisch unlösliche
SMILES: CCCCCCCCCCCCCCCC(=O)OC[C@@H](NC(=O)C(F)F)[C@H](O)c1ccc([N+](=O)[O-])cc1 [Fluoramphenicol-3-palmitat]
